Values quoted from earlier work in PubChem BioAssay AID493017 (Abbott Labs, 2003).

Biological target: Platelet-derived growth factor receptor alpha (Homo sapiens) (UniProt P16234)
Test: PubChem AID 493017
Settings: WOMBAT literature affinities, multiple human targets; PDGFR; gene PDGFRA; NCBI gene 5156

Sequence of Platelet-derived growth factor receptor alpha (Homo sapiens) (P16234 whole entry, looked up): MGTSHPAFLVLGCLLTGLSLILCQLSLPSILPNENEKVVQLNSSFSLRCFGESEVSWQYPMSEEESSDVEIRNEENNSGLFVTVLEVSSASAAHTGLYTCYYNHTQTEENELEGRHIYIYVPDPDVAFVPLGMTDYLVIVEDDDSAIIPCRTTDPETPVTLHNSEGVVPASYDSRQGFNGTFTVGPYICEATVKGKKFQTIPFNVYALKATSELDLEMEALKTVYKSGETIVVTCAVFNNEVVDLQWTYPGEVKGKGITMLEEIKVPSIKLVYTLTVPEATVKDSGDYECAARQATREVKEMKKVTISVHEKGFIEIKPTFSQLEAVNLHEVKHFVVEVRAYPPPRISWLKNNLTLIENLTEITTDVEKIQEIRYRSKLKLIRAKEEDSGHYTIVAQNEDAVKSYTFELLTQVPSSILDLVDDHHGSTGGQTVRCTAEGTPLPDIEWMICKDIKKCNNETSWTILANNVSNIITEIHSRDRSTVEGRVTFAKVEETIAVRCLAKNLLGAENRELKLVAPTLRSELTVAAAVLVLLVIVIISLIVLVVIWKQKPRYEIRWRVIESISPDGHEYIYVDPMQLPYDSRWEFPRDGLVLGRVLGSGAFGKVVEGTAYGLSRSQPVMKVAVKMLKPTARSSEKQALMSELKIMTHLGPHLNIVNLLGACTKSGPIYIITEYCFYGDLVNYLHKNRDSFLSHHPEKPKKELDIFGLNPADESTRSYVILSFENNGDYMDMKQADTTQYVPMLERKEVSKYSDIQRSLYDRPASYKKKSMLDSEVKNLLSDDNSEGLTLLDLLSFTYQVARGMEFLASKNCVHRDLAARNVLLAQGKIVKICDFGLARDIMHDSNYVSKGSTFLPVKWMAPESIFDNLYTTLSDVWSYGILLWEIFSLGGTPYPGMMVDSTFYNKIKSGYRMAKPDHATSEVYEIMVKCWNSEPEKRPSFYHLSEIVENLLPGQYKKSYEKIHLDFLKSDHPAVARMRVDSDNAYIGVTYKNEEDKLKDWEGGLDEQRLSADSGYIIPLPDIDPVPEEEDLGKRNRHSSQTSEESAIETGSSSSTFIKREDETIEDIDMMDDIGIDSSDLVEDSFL

| Compound | IC50 |
| --- | --- |
| COc1cc2nccc(Oc3cccc(OC)c3OC)c2cc1OC | 4400 nM |
| COc1cc2nccc(Oc3ccc(C(C)=O)cc3)c2cc1OC | 15000 nM |
| COc1cc2nccc(Oc3ccc(N(C)C(=O)c4ccc(C(C)(C)C)cc4)cc3)c2cc1OC | 330 nM |
| COc1cc2nccc(Oc3cccc(C)c3)c2cc1OC | 6900 nM |
| COc1cc2nccc(Oc3ccccc3C(=O)c3ccccc3)c2cc1OC | 48000 nM |
| COc1cc2nccc(Oc3ccc(NC(=O)c4ccc(C(C)(C)C)cc4)cc3)c2cc1OC | 50 nM |
| COc1cc2nccc(Oc3ccc(C(=O)c4ccc(C)cc4)cc3)c2cc1OC | 1700 nM |
| CCCCc1ccc(C(=O)c2ccc(Oc3ccnc4cc(OC)c(OC)cc34)cc2)cc1 | 150 nM |
| COc1cc2nccc(Oc3ccc(NC(=O)c4ccc(C(C)=O)cc4)cc3)c2cc1OC | 3600 nM |
| COc1cc2nccc(Oc3ccc(C(=O)c4ccccc4C(F)(F)F)cc3)c2cc1OC | 7200 nM |
| COc1cccc(Oc2ccnc3cc(OC)c(OC)cc23)c1 | 440 nM |
| COc1cc2nccc(Oc3ccccc3)c2cc1OC | 760 nM |
